Active and inactive are the calls of the source.
Assays:
J774.A1 [1] = experiment: Cytotoxicity against mouse J774.A1 cells assessed as reduction in cell viability at 0.01 to 3 uM measured after 24 hrs by MTT assay; format: toxicity, cell-based; details: j774.a1, 24 h, dose 0.01-3 µM
[2] = target: NACHT, LRR and PYD domains-containing protein 3 (Mus musculus) (UniProt Q8R4B8); experiment: Inhibition of NLRP3 inflammasome oligomerization in LPS-primed mouse BMDM cells assessed as prevention of ASC specks formation at 1 uM pretreated for 15 mins followed by ATP stimulation for 30 mins by DAPI staining based confocal microscopic analysis; format: cell-based; details: time 45.0 min
Chain of NACHT, LRR and PYD domains-containing protein 3 (Mus musculus) (Q8R4B8 whole entry, the tested form may be a part): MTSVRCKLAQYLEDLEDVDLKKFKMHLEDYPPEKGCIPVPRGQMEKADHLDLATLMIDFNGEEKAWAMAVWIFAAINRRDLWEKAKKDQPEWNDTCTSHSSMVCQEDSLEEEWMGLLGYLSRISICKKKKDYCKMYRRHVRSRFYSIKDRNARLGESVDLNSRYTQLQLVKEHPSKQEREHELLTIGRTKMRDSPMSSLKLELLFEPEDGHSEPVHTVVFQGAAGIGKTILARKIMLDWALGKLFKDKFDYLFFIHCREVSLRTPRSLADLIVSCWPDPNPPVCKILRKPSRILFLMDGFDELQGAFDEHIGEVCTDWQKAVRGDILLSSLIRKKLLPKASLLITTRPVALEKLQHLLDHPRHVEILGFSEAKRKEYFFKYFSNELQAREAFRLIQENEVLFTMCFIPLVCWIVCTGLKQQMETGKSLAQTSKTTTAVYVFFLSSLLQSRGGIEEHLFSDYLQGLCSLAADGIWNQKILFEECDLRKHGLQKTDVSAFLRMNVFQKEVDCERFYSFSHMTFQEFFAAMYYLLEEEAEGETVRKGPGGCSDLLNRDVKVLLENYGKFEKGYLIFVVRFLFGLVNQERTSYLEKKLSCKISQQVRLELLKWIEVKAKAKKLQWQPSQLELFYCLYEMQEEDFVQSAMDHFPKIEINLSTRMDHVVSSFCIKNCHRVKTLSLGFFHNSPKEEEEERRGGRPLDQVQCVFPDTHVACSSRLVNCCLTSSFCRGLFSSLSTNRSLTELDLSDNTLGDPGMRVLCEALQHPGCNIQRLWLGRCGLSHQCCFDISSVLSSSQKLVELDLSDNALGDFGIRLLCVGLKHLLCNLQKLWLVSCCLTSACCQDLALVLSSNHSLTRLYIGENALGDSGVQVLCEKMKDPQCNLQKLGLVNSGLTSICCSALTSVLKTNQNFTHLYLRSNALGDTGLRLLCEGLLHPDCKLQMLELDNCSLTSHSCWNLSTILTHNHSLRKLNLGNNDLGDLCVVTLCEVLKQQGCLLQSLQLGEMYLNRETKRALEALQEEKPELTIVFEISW

J774.A1 [3] = experiment: Cytotoxicity against mouse J774.A1 cells assessed as reduction in cell viability at 10 uM measured after 24 hrs by MTT assay relative to control; format: toxicity, cell-based; details: j774.a1, 24 h
[4] = target: NACHT, LRR and PYD domains-containing protein 3 (Mus musculus) (UniProt Q8R4B8); experiment: Inhibition of NLRP3 inflammasome activation in LPS-primed mouse BMDM cells assessed as inhibition of caspase-1 cleavage in supernatant at 1 uM pretreated for 15 mins followed by ATP addition for 30 mins by Western blot analysis; format: cell-based; details: time 45.0 min
Mus musculus [5] = experiment: Antiinflammatory activity in MSU-induced acute gout arthritis in wild type male C57BL/6J mouse model assessed as decrease in paw inflammation at 3 to 10 mg/kg, ip measured after 24 hrs; format: functional, organism-based; details: dose 3-10 mg/kg
[6] = target: NACHT, LRR and PYD domains-containing protein 3 (Mus musculus) (UniProt Q8R4B8); experiment: Inhibition of NLRP3 inflammasome oligomerization in LPS-primed mouse BMDM cells assessed as prevention of ASC specks formation at 1 uM pretreated for 15 mins followed by MSU stimulation for 30 mins by DAPI staining based confocal microscopic analysis; format: cell-based; details: time 45.0 min
Mus musculus [7] = experiment: Analgesic activity in MSU-induced mechanical hyperalgesia in wild type C57BL/6J mouse model assessed as decrease in paw withdrawal threshold at 3 mg/kg, ip measured after 24 hrs by von Frey test (Rvb= 72%); format: functional; parameters: scale not given: the % may be the effect or the level left
Mus musculus [8] = experiment: Antiinflammatory activity in MSU-induced acute gout arthritis in NLRP3 knockout female C57BL/6J mouse model assessed as reduction in paw inflammation at 3 to 10 mg/kg, ip measured after 24 hrs relative to control; format: functional; parameters: scale not given: the % may be the effect or the level left; details: dose 3-10 mg/kg
Mus musculus [9] = experiment: Antiinflammatory activity in MSU-induced acute gout arthritis in wild type male C57BL/6J mouse model assessed as decrease in paw inflammation at 3 mg/kg, ip measured after 24 hrs relative to control; format: functional; parameters: scale not given: the % may be the effect or the level left
Mus musculus [10] = experiment: Antiinflammatory activity in MSU-induced acute gout arthritis in NLRP3 knockout male C57BL/6J mouse model assessed as reduction in paw inflammation at 3 to 10 mg/kg, ip measured after 24 hrs relative to control; format: functional; parameters: scale not given: the % may be the effect or the level left; details: dose 3-10 mg/kg
Mus musculus [11] = experiment: Antiinflammatory activity in MSU-induced acute gout arthritis in wild type male C57BL/6J mouse model assessed as decrease in paw inflammation at 10 mg/kg, ip measured after 24 hrs relative to control; format: functional; parameters: scale not given: the % may be the effect or the level left
[12] = target: NACHT, LRR and PYD domains-containing protein 3 (Mus musculus) (UniProt Q8R4B8); experiment: Inhibition of NLRP3 inflammasome activation in LPS-primed mouse BMDM cells assessed as inhibition of IL-1beta cleavage in supernatant at 1 uM pretreated for 15 mins followed by ATP addition for 30 mins by Western blot analysis; format: cell-based; details: time 45.0 min
J774.A1 [13] = experiment: Cytotoxicity against mouse J774.A1 cells assessed as reduction in cell viability at 30 uM measured after 24 hrs by MTT assay relative to control; format: toxicity, cell-based; details: j774.a1, 24 h
AML12 = experiment: Cytotoxicity against mouse AML12 cells assessed as reduction in cell viability at 0.01 to 30 uM measured after 24 hrs by MTT assay; format: toxicity, cell-based; details: aml12, 24 h, dose 0.01-30 µM
Mus musculus [14] = experiment: Antiinflammatory activity in MSU-induced acute gout arthritis in wild type female C57BL/6J mouse model assessed as decrease in paw inflammation at 10 mg/kg, ip measured after 24 hrs relative to control; format: functional; parameters: scale not given: the % may be the effect or the level left
Mus musculus [15] = experiment: Analgesic activity in MSU-induced mechanical hyperalgesia in wild type C57BL/6J mouse model assessed as decrease in paw withdrawal threshold at 10 mg/kg, ip measured after 24 hrs by von Frey test (Rvb= 72%); format: functional; parameters: scale not given: the % may be the effect or the level left
Mus musculus [16] = experiment: Antiinflammatory activity in MSU-induced acute gout arthritis in wild type female C57BL/6J mouse model assessed as decrease in paw inflammation at 3 mg/kg, ip measured after 24 hrs relative to control; format: functional; parameters: scale not given: the % may be the effect or the level left
[17] = target: NACHT, LRR and PYD domains-containing protein 3 (Mus musculus, UniProt Q8R4B8); experiment: Inhibition of NLRP3 inflammasome activation in LPS-primed mouse BMDM cells assessed as reduction in ATP induced IL-1beta release pretreated for 15 mins followed by ATP stimulation for 30 mins by ELISA; format: cell-based
Chain of NACHT, LRR and PYD domains-containing protein 3 (Q8R4B8 whole entry, the tested form may be a part): as above

Mus musculus [18] = experiment: Antiinflammatory activity in MSU-induced acute gout arthritis in NLRP3 knock out C57BL/6J mouse model assessed as reduction in paw swelling at 3 mg/kg, ip measured after 24 hrs relative to control; format: functional; parameters: scale not given: the % may be the effect or the level left
Mus musculus [19] = experiment: Antiinflammatory activity in MSU-induced acute gout arthritis in wild type male C57BL/6J mouse model assessed as decrease in paw inflammation at 3 mg/kg, ip measured after 24 hrs; format: functional, organism-based

Row | Compound | Activity (J774.A1 [1]) | inhibition [2] | Activity (J774.A1 [3]) | inhibition [4] | Activity (Mus musculus [5]) | inhibition [6] | Activity (Mus musculus [7]) | Activity (Mus musculus [8]) | Activity (Mus musculus [9]) | Activity (Mus musculus [10]) | Activity (Mus musculus [11]) | inhibition [12] | Activity (J774.A1 [13]) | Activity (AML12) | Activity (Mus musculus [14]) | Activity (Mus musculus [15]) | Activity (Mus musculus [16]) | IC50 [17] | Activity (Mus musculus [18]) | Activity (Mus musculus [19])
1 | Cc1cc(C)cc(NC(=O)[N-]S(=O)(=O)c2cc(C(C)(C)O)co2)c1.[Na+] | Non-Toxic | Active | 20% | Active | Active | Active | 47% | 60% | 40% | 65% | 66% | Active | 20% | Non-Toxic | 52% | 19% | 33% | 0.23 nM | – | –
2 | CC(C)(O)c1coc(S(=O)(=O)NC(=O)Nc2c3c(cc4c2CCC4)CCC3)c1 | Non-Toxic | – | 30% | – | – | – | – | – | – | – | – | – | 30% | Non-Toxic | – | – | – | 0.39 nM | 33% | Active
